Reference: patent US20260297070A1, “CYCLIC [COMPOUND LEFT OUT] WRN INHIBITORS” (Nimbus Wadjet, Inc., priority 2023, published 2026)

The molecules below were run against T1, human Werner helicase (WRN-BV08, Uniprot Q14191, amino acids 517-1235 with L1074F point mutation) (Homo sapiens, UniProt Q14191, L1074F) (assay: WRN (BV08) ADP-Glo Assay). Conditions: 0.15 nM WRN, 5 μM ATP, 0.1 nM DNA duplex, 15 min preincubation, 60 min at 25° C., pH 7.5, 1% DMSO; read-out: ADP-Glo_hWRN_IC50.
T1 construct: Uniprot Q14191, amino acids 517-1235 with L1074F point mutation; TEV-cleavable 8×His (C, cleaved yes); made in house; host or cells: Sf9 insect cells (baculovirus)
Type: biochemical
From the text: Example 2: WRN (BV08) ADP-Glo Assay Protocol
Bovine skin gelatin (BSG), dimethyl sulfoxide (DMSO), Pluronic F-127 and Tris(2-carboxyethyl)phosphine hydrochloride solution (TCEP) were purchased from Sigma-Aldrich at the highest level of purity possible. Bicine buffer solution was purchased from Alfa Aesar and compound NSC-617145 was purchased from Tocris. DNA duplex was synthesized at BGI (Shenzhen, China) and was composed of strand 1 with the sequence 5′-[…]-3′ (SEQ ID NO.: 1) and strand 2 with the sequence 5′-[…]-3′ (SEQ ID NO.: 2). DNA strands were annealed by heating to 95° C. for 5 minutes followed by slow cooling to room temperature. Compounds in 100% DMSO (0.1 μl) were spotted into a 384-well white polystyrene Optiplate-384 (Perkin Elmer) assay plate using a LabCyte Echo 550 (Agilent). DMSO (0.1 μl) was added to columns 12, rows A-H and column 24, rows I-P for the maximum signal control. Compound NSC-617145 (0.1 μl) was added to columns 12, rows I-P and 24, rows A-H for the minimum signal control (100% inhibition). Compounds/DMSO were preincubated for 15 minutes at 25° C. with 5 uL 2×WRN (BV08), prepared as described below, in assay buffer containing 20 mM Bicine (pH=7.5), 1 mM MgCl2, 10 mM KCl, 0.1% Pluronic F-127, 0.005% BSG, 1 mM TCEP. The reaction was initiated by the addition of 5 μl 2× substrate mixture in assay buffer and incubated for 60 minutes at 25° C. The final concentrations of the assay components were 0.15 nM WRN, 5 μM ATP, and 0.1 nM DNA duplex. The final DMSO concentration was 1% and the reference compound concentration (NSC-617145) used for the minimal signal control was 20 μM. The reaction was stopped by the addition of the ADP-Glo Kit components (Promega) as directed and the relative luminescence units (RLU) were read on an Envision 2104 (Perkin Elmer).
% Inhibition Calculation:
Where RLU=relative luminescence units, sample=signal in sample well, and MIN and MAX are the respective minimum and maximum signal controls.
Four-Parameter IC50 Fit Equation:
Where top and bottom are normally allowed to float but may be fixed at 100 or 0 respectively in a 3-parameter fit. Y is the % inhibition and X is the compound concentration.
Molecular Biology and virus production. The DNA encoding human Werner helicase (Uniprot Q14191, amino acids 517-1235 with L1074F point mutation) was generated with codon-optimization for E. coli expression and subcloned into the pFastBac vector with a TEV cleavable 8×His tag (WRN-BV08). The baculovirus from the expression plasmid WRN-BV08 was generated from transfection and amplification following the manufacturer's instructions.
Sf9 cells grown in SF900II media were infected with 1:200 WRN-BV08 P2 virus and incubated for protein expression for 72 h at 27° C. The WRN protein was purified using the following protocol. The cell pellets were thawed and resuspended in buffer A (50 mM Tris, pH 7.5, 500 mM NaCl, 1 mM TCEP, 10% Glycerol) supplemented with 0.5% CHAPS, 1 mM [COMPOUND LEFT OUT], 1 μg/mL Leupeptin, 1 μg/mL Pepstatin, and the Pierce Universal Nuclease and cocktail tablet. Cleared lysates were loaded onto a Ni Sepharose™ excel column and washed with buffer A and bound protein was eluted with buffer A supplemented with 300 mM imidazole. The eluted protein was dialyzed against buffer A and digested by His-tagged TEV (1:5 ratio) overnight at 4° C. ZnCl2 was added into the sample at final 15 μM before loading onto a second Ni Sepharose™ excel column. Untagged WRN protein was eluted from the column with buffer A supplemented with 20 mM imidazole, dialyzed overnight into buffer B (50 mM Tris, pH 7.5, 1 mM TCEP, 10% Glycerol) supplemented with 150 mM NaCl and loaded onto a Heparin column. Proteins were eluted with a step gradient of buffer B supplemented with 150 mM, 200 mM, 300 mM and 500 mM NaCl. […]

T1 sequence (Q14191 with tags, fused parts or gaps L1074F limits assumed): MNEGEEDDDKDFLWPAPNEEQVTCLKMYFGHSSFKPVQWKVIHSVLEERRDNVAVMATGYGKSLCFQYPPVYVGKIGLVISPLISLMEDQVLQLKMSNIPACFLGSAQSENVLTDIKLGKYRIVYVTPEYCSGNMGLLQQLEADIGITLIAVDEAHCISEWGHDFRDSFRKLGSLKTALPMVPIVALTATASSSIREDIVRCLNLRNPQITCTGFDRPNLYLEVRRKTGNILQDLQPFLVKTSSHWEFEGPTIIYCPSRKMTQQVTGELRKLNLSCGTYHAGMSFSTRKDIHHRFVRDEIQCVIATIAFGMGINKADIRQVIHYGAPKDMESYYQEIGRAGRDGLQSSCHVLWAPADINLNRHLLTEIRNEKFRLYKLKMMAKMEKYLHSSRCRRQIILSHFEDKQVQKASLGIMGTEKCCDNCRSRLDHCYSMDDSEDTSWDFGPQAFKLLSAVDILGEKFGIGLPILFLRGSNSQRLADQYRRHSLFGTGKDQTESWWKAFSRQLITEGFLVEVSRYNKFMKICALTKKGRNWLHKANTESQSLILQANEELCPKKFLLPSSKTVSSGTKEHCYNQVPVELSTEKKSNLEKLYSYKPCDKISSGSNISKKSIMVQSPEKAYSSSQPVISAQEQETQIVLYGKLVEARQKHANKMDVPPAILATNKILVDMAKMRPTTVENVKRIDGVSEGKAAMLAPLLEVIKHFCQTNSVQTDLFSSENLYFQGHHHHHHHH

| Structure (SMILES) | IC50 |
| --- | --- |
| COCCOc1cc(CN(C(=O)Cc2ccc(S(F)(F)(F)(F)F)cc2)C2C=CS(=O)(=O)C2)ccn1 (stereo not drawn) [I-719, N-(1,1-dioxo-2,3-dihydro-1lambda6-thiophen-3-yl)-N-{[2-(2-methoxyethoxy)pyridin-4-yl]methyl}-2-[4-(pentafluoro-lambda6-sulfanyl)phenyl]acetamide] | < 0.5 µM |
| COc1cc(CN(C(=O)C(C)c2ccc(-n3cccc3)cc2)C2C=CS(=O)(=O)C2)ccn1 (stereo not drawn) [I-212, N-(1,1-dioxo-2,3-dihydro-1lambda6-thiophen-3-yl)-N-[(2-methoxypyridin-4-yl)methyl]-2-[4-(1H-pyrrol-1-yl)phenyl]propanamide] | 0.5 to 5 µM |
| COc1cc(CN(C(=O)Cc2ccc(-c3ccc(F)c(F)c3)cc2F)C2C=CS(=O)(=O)C2)ccn1 (stereo not drawn) [I-64, N-(1,1-dioxo-2,3-dihydro-1lambda6-thiophen-3-yl)-N-[(2-methoxypyridin-4-yl)methyl]-2-{3,3′,4′-trifluoro-[1,1′-biphenyl]-4-yl}acetamide] | < 0.5 µM |
| Cc1scnc1-c1ccc(CC(=O)N(Cc2ccncc2)C2C=CS(=O)(=O)C2)c(F)c1 (stereo not drawn) [I-320, N-(1,1-dioxo-2,3-dihydro-1lambda6-thiophen-3-yl)-2-[2-fluoro-4-(5-methyl-1,3-thiazol-4-yl)phenyl]-N-[(pyridin-4-yl)methyl]acetamide] | 10 to 50 µM |
| O=C(Cc1ccc(S(F)(F)(F)(F)F)cc1)N(CCc1nc(C2CC2)cs1)C1C=CS(=O)(=O)C1 (stereo not drawn) [I-629, N-[2-(4-cyclopropyl-1,3-thiazol-2-yl)ethyl]-N-(1,1-dioxo-2,3-dihydro-1lambda6-thiophen-3-yl)-2-[4-(pentafluoro-lambda6-sulfanyl)phenyl]acetamide] | 0.5 to 5 µM |
| CC(C(=O)N(Cc1ccncc1)C1C=CS(=O)(=O)C1)c1ccc(-n2cccc2)cc1 (stereo not drawn) [I-265, N-(1,1-dioxo-2,3-dihydro-1lambda6-thiophen-3-yl)-N-[(pyridin-4-yl)methyl]-2-[4-(1H-pyrrol-1-yl)phenyl]propanamide] | 5 to 10 µM |
| COc1cc(CN(C(=O)Cn2cc(-c3ccc(F)c(F)c3)c(C)n2)[C@@H]2C=CS(=O)(=O)C2)ccn1 [I-713, 2-[4-(3,4-difluorophenyl)-3-methyl-1H-pyrazol-1-yl]-N-[(3R)-1,1-dioxo-2,3-dihydro-1lambda6-thiophen-3-yl]-N-[(2-methoxypyridin-4-yl)methyl]acetamide] | 10 to 50 µM |
| COc1cc(CN(C(=O)C(c2ccc(-c3ccc(F)c(F)c3)cc2F)n2cc(OC(F)F)cn2)[C@@H]2C=CS(=O)(=O)C2)ccn1 (stereo partly drawn) [I-695, 2-[4-(difluoromethoxy)-1H-pyrazol-1-yl]-N-[(3R)-1,1-dioxo-2,3-dihydro-1lambda6-thiophen-3-yl]-N-[(2-methoxypyridin-4-yl)methyl]-2-{3,3′,4′-trifluoro-[1,1′-biphenyl]-4-yl}acetamide] | < 0.5 µM |
| O=C(Cc1ccc(C2CCCC2)cc1)N(Cc1ccncc1)C1C=CS(=O)(=O)C1 (stereo not drawn) [I-217, 2-(4-cyclopentylphenyl)-N-(1,1-dioxo-2,3-dihydro-1lambda6-thiophen-3-yl)-N-[(pyridin-4-yl)methyl]acetamide] | 0.5 to 5 µM |
| O=C(Cc1ccc(-c2ccc(F)cc2C(F)F)cc1)N(Cc1ccncc1)C1C=CS(=O)(=O)C1 (stereo not drawn) [I-334, 2-[2′-(difluoromethyl)-4′-fluoro-[1,1′-biphenyl]-4-yl]-N-(1,1-dioxo-2,3-dihydro-1lambda6-thiophen-3-yl)-N-[(pyridin-4-yl)methyl]acetamide] | 10 to 50 µM |
| CC(C)(O)c1ccc(CN(C(=O)Cc2ccc(S(F)(F)(F)(F)F)cc2)C2C=CS(=O)(=O)C2)cc1 (stereo not drawn) [I-623, N-(1,1-dioxo-2,3-dihydro-1lambda6-thiophen-3-yl)-N-{[4-(2-hydroxypropan-2-yl)phenyl]methyl}-2-[4-(pentafluoro-lambda6-sulfanyl)phenyl]acetamide] | 0.5 to 5 µM |

Other lines, results leading:

| IC50 | Structure (SMILES) |
| --- | --- |
| < 0.5 µM | Cc1cccn1-c1ccc(CC(=O)N(Cc2ccnc(C3(O)CCC3)c2)C2C=CS(=O)(=O)C2)c(F)c1 (stereo not drawn) [I-65, N-(1,1-dioxido-2,3-dihydrothiophen-3-yl)-2-(2-fluoro-4-(2-methyl-1H-pyrrol-1-yl)phenyl)-N-((2-(1-hydroxycyclobutyl)pyridin-4-yl)methyl)acetamide] |
| 0.5 to 5 µM | COCCOC(C(=O)N(Cc1ccnc(C(C)(C)O)c1)[C@@H]1C=CS(=O)(=O)C1)c1ccc(S(F)(F)(F)(F)F)cc1 (single isomer, unassigned) [I-765] |
| < 0.5 µM | COc1cc(CN(C(=O)C(c2ccc(-c3ccc(F)c(F)c3)cc2F)n2ccc(C)n2)[C@@H]2C=CS(=O)(=O)C2)ccn1 (single isomer, unassigned) [I-750, (2R*)-N-[(3R)-1,1-dioxo-2,3-dihydro-1lambda6-thiophen-3-yl]-N-[(2-methoxypyridin-4-yl)methyl]-2-(3-methyl-1H-pyrazol-1-yl)-2-{3,3′,4′-trifluoro-[1,1′-biphenyl]-4-yl}acetamide] |
| 0.5 to 5 µM | O=C(Cc1ccc(-n2cccc2)cc1Cl)N(Cc1ccncc1)C1C=CS(=O)(=O)C1 (stereo not drawn) [I-208, 2-[2-chloro-4-(1H-pyrrol-1-yl)phenyl]-N-(1,1-dioxo-2,3-dihydro-1lambda6-thiophen-3-yl)-N-[(pyridin-4-yl)methyl]acetamide] |
| < 0.5 µM | COc1cc(CN(C(=O)Cc2ccc(-n3cccc3C)cc2F)C2C=CS(=O)(=O)C2)ccn1 (stereo not drawn) [I-69, N-(1,1-dioxo-2,3-dihydro-1lambda6-thiophen-3-yl)-2-[2-fluoro-4-(2-methyl-1H-pyrrol-1-yl)phenyl]-N-[(2-methoxypyridin-4-yl)methyl]acetamide] |
| 0.5 to 5 µM | Cc1sc(CN(C(=O)Cc2ccc(-c3ccc(F)c(F)c3)cc2F)C2C=CS(=O)(=O)C2)nc1C1CC1 (stereo not drawn) [I-754, N-[(4-cyclopropyl-5-methyl-1,3-thiazol-2-yl)methyl]-N-(1,1-dioxo-2,3-dihydro-1lambda6-thiophen-3-yl)-2-{3,3′,4′-trifluoro-[1,1′-biphenyl]-4-yl}acetamide] |
| < 0.5 µM | COc1cc(CN(C(=O)C(c2ccc(-c3ccc(F)c(F)c3)cc2F)n2cc(C(F)F)cn2)[C@@H]2C=CS(=O)(=O)C2)ccn1 (single isomer, unassigned) [I-701, (2R*)-2-[4-(difluoromethyl)-1H-pyrazol-1-yl]-N-[(3R)-1,1-dioxo-2,3-dihydro-1lambda6-thiophen-3-yl]-N-[(2-methoxypyridin-4-yl)methyl]-2-{3,3′,4′-trifluoro-[1,1′-biphenyl]-4-yl}acetamide] |
| 10 to 50 µM | O=C(Cc1ccc(S(F)(F)(F)(F)F)cc1)N(Cc1nc(C2CC2)cs1)C1C=CS(=O)(=O)C1 (single isomer, unassigned) [I-253] |
| < 0.5 µM | COc1cc(CN(C(=O)Cc2ccc(-n3cccc3C)cc2F)[C@@H]2C=CS(=O)(=O)C2)ccn1 [I-56, N-[(3R)-1,1-dioxo-2,3-dihydro-1lambda6-thiophen-3-yl]-2-[2-fluoro-4-(2-methyl-1H-pyrrol-1-yl)phenyl]-N-[(2-methoxypyridin-4-yl)methyl]acetamide] |
| > 50 µM | O=C(Cc1ccc(-c2ccc(F)cc2)cc1)N(Cc1ccccc1)C1C=C(CO)S(=O)(=O)C1 (stereo not drawn) [I-640, N-benzyl-2-{4′-fluoro-[1,1′-biphenyl]-4-yl}-N-[5-(hydroxymethyl)-1,1-dioxo-2,3-dihydro-1lambda6-thiophen-3-yl]acetamide] |
